Patent US5198564A, “Cis-platinum-diamine complexes and antitumorous compositions containing them, and process for their preparation” (Beijing Polytechnic University, priority 1987, dated 1993)
Values belong to the compound of their own block, whether it stands above or below them.

Assays:
[1] = water
[2] = test system: L1210 mouse leukemia cells; test: Effect in prolonging the life of mouse with cancer (L1210), Test Example 1; type: in vivo, DBA/2 mice; details: i.p. once, 30 days observation
Description: To DBA/2 mice, L1210 mouse leukemia cells were inoculated into the abdominal cavity of each mouse used in the test. The test drugs were intraperitoneally administered once (e.g. after 24 hours of inoculation). […] The ratio (T/C %) of the survival time of a treated group (administered with a certain drug) to the survival time of a control group (administered with only physiological saline) was obtained and is shown in table VI with the average number of survival days for mice of the control group being evaluated as 100. The test drugs were aqueous suspensions obtained by adding small amounts of surfactants (e.g. tween-80) to the less soluble test compounds in water.

S180 sarcoma cells = test: Effect in prolonging the life of mouse with cancer (S180), Test Example 2; type: in vivo, DBA/2 mice; details: i.p. once, 30 days observation
Description: To DBA/2 mice, S180 sarcoma cells were intraperitoneally inoculated with approximately 1×10^6 cells/mouse. The test drugs were intraperitoneally administered once (e.g. after 24 hours of inoculation). […] The ratio (T/C %) of survival time of test and control animals was obtained and is shown in table V with the average number of survival days for mice of the control group to which a physiological saline was administered being evaluated as 100. The test drugs were aqueous suspensions obtained by adding small amount of surfactants (e.g. tween-80) to the less soluble test compounds in water.

[3] = test system: Sarcoma 180 and Leukemia L1210; details: reported in 1969; cited from earlier work
[4] = L1210 S180 printed, one value only, 8 mg/kg

SMILES: NCc1ccc(CO)o1.NCc1ccc(CO)o1.[Cl][Pt][Cl] [drawing 216]
- Solubility [1]: 1.1 mg/mL

SMILES: NCc1ccco1.NCc1ccco1.[I][Pt][I] [I 42]
- T/C (%) of ST (ratio of survival time of test and control animals) ([2]; L1210, 17.5 mg/kg): > 200%
- T/C (%) of ST (ratio of survival time of test and control animals) (S180 sarcoma cells; 17.5 mg/kg): > 200%

SMILES: NCc1ccc(Cl)c(O)c1.NCc1ccc(Cl)c(O)c1.[Cl][Pt][Cl] [drawing 210]
- Solubility [1]: 0.9 mg/mL

SMILES: NCc1ccc(C(=O)O)cc1.NCc1ccc(C(=O)O)cc1.[Cl][Pt][Cl] [drawing 212]
- Solubility [1]: 2.2 mg/mL

SMILES: NCc1ccc(O)cc1.NCc1ccc(O)cc1.[I][Pt][I]
- Solubility [1]: 0.8 mg/mL

SMILES: C[C@H](N)c1ccccc1.C[C@H](N)c1ccccc1.[Cl][Pt][Cl] [I 31]
- T/C (%) of ST (ratio of survival time of test and control animals) ([2]; L1210, 17.5 mg/kg): > 260%
- T/C (%) of ST (ratio of survival time of test and control animals) (S180 sarcoma cells; 17.5 mg/kg): > 245%

SMILES: NCc1ccco1.NCc1ccco1.[I][Pt][I] [drawing 213]
- Solubility [1]: 0.06 mg/mL

SMILES: N[C@@H]1COCO[C@@H]1c1ccccc1.N[C@@H]1COCO[C@@H]1c1ccccc1.[Cl][Pt][Cl]
- Solubility [1]: 0.06 mg/mL

SMILES: NCc1ccc(Cl)c(O)c1.NCc1ccc(Cl)c(O)c1.[I][Pt][I] [drawing 209]
- Solubility [1]: 0.4 mg/mL

SMILES: NCc1ccc(Cl)cc1.NCc1ccc(Cl)cc1.[Cl][Pt][Cl] [drawing 204]
- Solubility [1]: 0.01 mg/mL

SMILES: NCc1ccccc1CN.[Cl][Pt][Cl]
- Solubility [1]: 0.02 mg/mL

SMILES: NCc1ccccc1Br.NCc1ccccc1Br.[I][Pt][I]
- T/C (%) of ST (ratio of survival time of test and control animals) ([2]; L1210, 10 mg/kg): > 175%
- T/C (%) of ST (ratio of survival time of test and control animals) (S180 sarcoma cells; 10 mg/kg): > 180%

SMILES: NCc1ccc(Br)cc1.NCc1ccc(Br)cc1.[Cl][Pt][Cl]
- T/C (%) of ST (ratio of survival time of test and control animals) ([2]; L1210, 12 mg/kg): > 205%
- T/C (%) of ST (ratio of survival time of test and control animals) (S180 sarcoma cells; 12 mg/kg): > 198%

SMILES: NCc1ccc(CO)o1.NCc1ccc(CO)o1.[I][Pt][I] [drawing 215]
- Solubility [1]: 0.2 mg/mL

SMILES: NCc1ccccc1.NCc1ccccc1.[Cl][Pt][Cl]
- T/C (%) of ST (ratio of survival time of test and control animals) [2, 4]: > 201%

SMILES: NCc1ccc(Cl)cc1.NCc1ccc(Cl)cc1.[I][Pt][I]
- T/C (%) of ST (ratio of survival time of test and control animals) ([2]; L1210, 10 mg/kg): > 182%
- T/C (%) of ST (ratio of survival time of test and control animals) (S180 sarcoma cells; 10 mg/kg): > 140%

SMILES: NCc1ccc(C(=O)O)cc1.NCc1ccc(C(=O)O)cc1.[I][Pt][I] [drawing 211]
- Solubility [1]: 1.0 mg/mL

- Solubility [1]: 18.5 mg/mL
SMILES: N.N.O=C1[O][Pt][O]C(=O)C12CCC2 [reference compound]

SMILES: NCc1cc(C(=O)O)c(C(=O)O)cc1CN.[Cl][Pt][Cl]
- Solubility [1]: 2.4 mg/mL

SMILES: N.N.[Cl][Pt][Cl] [PDD, Cis-platinum (II) diamine dichloride]
- anticancer activity [3]: strong anticancer activity against Sarcoma 180 and Leukemia L1210

SMILES: NCc1ccco1.NCc1ccco1.[Cl][Pt][Cl] [drawing 214]
- Solubility [1]: 0.16 mg/mL

SMILES: NCc1ccccc1CN.[I][Pt][I]
- Solubility [1]: 0.01 mg/mL

SMILES: NCc1ccc(C(=O)O)cc1.NCc1ccc(C(=O)O)cc1.[Cl][Pt][Cl] [I 37]
- T/C (%) of ST (ratio of survival time of test and control animals) ([2]; L1210, 10 mg/kg): > 250%
- T/C (%) of ST (ratio of survival time of test and control animals) (S180 sarcoma cells; 10 mg/kg): > 255%

SMILES: NCc1ccc(O)cc1.NCc1ccc(O)cc1.[Cl][Pt][Cl]
- Solubility [1]: 1.5 mg/mL

SMILES: NCc1ccco1.NCc1ccco1.[Cl][Pt][Cl] [I 43]
- T/C (%) of ST (ratio of survival time of test and control animals) ([2]; L1210, 12 mg/kg): > 225%
- T/C (%) of ST (ratio of survival time of test and control animals) (S180 sarcoma cells; 12 mg/kg): > 230%

SMILES: NCc1ccccc1.NCc1ccccc1.[I][Pt][I]
- T/C (%) of ST (ratio of survival time of test and control animals) [2, 4]: > 201%

SMILES: C[C@H](N)c1ccccc1.C[C@H](N)c1ccccc1.[I][Pt][I] [I 30]
- T/C (%) of ST (ratio of survival time of test and control animals) ([2]; L1210, 17.5 mg/kg): > 226%
- T/C (%) of ST (ratio of survival time of test and control animals) (S180 sarcoma cells; 17.5 mg/kg): > 230%

SMILES: NCc1ccc(Br)cc1.NCc1ccc(Br)cc1.[I][Pt][I]
- T/C (%) of ST (ratio of survival time of test and control animals) ([2]; L1210, 17.5 mg/kg): > 150%
- T/C (%) of ST (ratio of survival time of test and control animals) (S180 sarcoma cells; 17.5 mg/kg): > 158%

SMILES: NCc1cc(C(=O)O)c(C(=O)O)cc1CN.[I][Pt][I]
- Solubility [1]: 1.1 mg/mL

SMILES: NCc1ccc(F)cc1.NCc1ccc(F)cc1.[I][Pt][I] [I 11]
- T/C (%) of ST (ratio of survival time of test and control animals) ([2]; L1210, 13.5 mg/kg): > 161%
- T/C (%) of ST (ratio of survival time of test and control animals) (S180 sarcoma cells; 13.5 mg/kg): > 184%

SMILES: NCc1ccccc1Br.NCc1ccccc1Br.[Cl][Pt][Cl]
- T/C (%) of ST (ratio of survival time of test and control animals) ([2]; L1210, 10 mg/kg): > 180%
- T/C (%) of ST (ratio of survival time of test and control animals) (S180 sarcoma cells; 10 mg/kg): > 184%

SMILES: C[C@@H](N)c1ccccc1.C[C@@H](N)c1ccccc1.[I][Pt][I] [I 28]
- T/C (%) of ST (ratio of survival time of test and control animals) ([2]; L1210, 17.5 mg/kg): > 220%
- T/C (%) of ST (ratio of survival time of test and control animals) (S180 sarcoma cells; 17.5 mg/kg): > 215%

SMILES: NCc1ccc(CO)o1.NCc1ccc(CO)o1.[Cl][Pt][Cl] [I 45]
- T/C (%) of ST (ratio of survival time of test and control animals) ([2]; L1210, 12 mg/kg): > 226%
- T/C (%) of ST (ratio of survival time of test and control animals) (S180 sarcoma cells; 12 mg/kg): > 218%

SMILES: NCc1ccc(F)cc1.NCc1ccc(F)cc1.[Cl][Pt][Cl] [I 12]
- T/C (%) of ST (ratio of survival time of test and control animals) ([2]; L1210, 13.5 mg/kg): > 177%
- T/C (%) of ST (ratio of survival time of test and control animals) (S180 sarcoma cells; 13.5 mg/kg): > 175%

SMILES: NCc1ccc(CO)o1.NCc1ccc(CO)o1.[I][Pt][I] [I 44]
- T/C (%) of ST (ratio of survival time of test and control animals) ([2]; L1210, 17.5 mg/kg): > 215%
- T/C (%) of ST (ratio of survival time of test and control animals) (S180 sarcoma cells; 17.5 mg/kg): > 220%

SMILES: NCc1ccc(Cl)cc1.NCc1ccc(Cl)cc1.[Cl][Pt][Cl] [drawing 224]
- T/C (%) of ST (ratio of survival time of test and control animals) ([2]; L1210, 10 mg/kg): > 197%
- T/C (%) of ST (ratio of survival time of test and control animals) (S180 sarcoma cells; 10 mg/kg): > 140%

SMILES: NCc1ccc(Cl)cc1.NCc1ccc(Cl)cc1.O=C([O-])C1(C(=O)[O-])CCC1.[Pt+2] [V/7]
- T/C (%) of ST (ratio of survival time of test and control animals) ([2]; L1210, 10 mg/kg): > 210%
- T/C (%) of ST (ratio of survival time of test and control animals) (S180 sarcoma cells; 10 mg/kg): > 202%

SMILES: NCc1ccc(Cl)c(O)c1.NCc1ccc(Cl)c(O)c1.[Cl][Pt][Cl] [I 21]
- T/C (%) of ST (ratio of survival time of test and control animals) ([2]; L1210, 15 mg/kg): > 238%
- T/C (%) of ST (ratio of survival time of test and control animals) (S180 sarcoma cells; 15 mg/kg): > 251%

SMILES: C[C@@H](N)c1ccccc1.C[C@@H](N)c1ccccc1.[Cl][Pt][Cl] [I 29]
- T/C (%) of ST (ratio of survival time of test and control animals) ([2]; L1210, 17.5 mg/kg): > 246%
- T/C (%) of ST (ratio of survival time of test and control animals) (S180 sarcoma cells; 17.5 mg/kg): > 250%

SMILES: NCc1ccc(C(=O)O)cc1.NCc1ccc(C(=O)O)cc1.[I][Pt][I] [I 36]
- T/C (%) of ST (ratio of survival time of test and control animals) ([2]; L1210, 10 mg/kg): > 243%
- T/C (%) of ST (ratio of survival time of test and control animals) (S180 sarcoma cells; 10 mg/kg): > 230%

SMILES: N[C@@H]1COCO[C@@H]1c1ccccc1.N[C@@H]1COCO[C@@H]1c1ccccc1.[I][Pt][I]
- Solubility [1]: 0.02 mg/mL

SMILES: NCc1ccc(Cl)c(O)c1.NCc1ccc(Cl)c(O)c1.[I][Pt][I] [I 20]
- T/C (%) of ST (ratio of survival time of test and control animals) ([2]; L1210, 15 mg/kg): > 212%
- T/C (%) of ST (ratio of survival time of test and control animals) (S180 sarcoma cells; 15 mg/kg): > 227%
